Like-named read-outs stand apart in the source and are kept apart here. Values belong to the molecule of their own block, whether it stands above or below them.
What was measured:
[1] = PBS pH 7.4, 24 hours, 37 C; cited from earlier work
[2] = target: mTORC (Homo sapiens (Human), UniProt P42345); experiment: mTOR kinase inhibition assay; assay type: biochemical; conditions: Table 2; compound numbers of Table 3; read-out: IC50 results mTORC
[3] = target: PI3K α (Homo sapiens (Human), UniProt P42336); experiment: PI3K α inhibition assay; assay type: biochemical; conditions: Table 2; compound numbers of Table 3; read-out: IC50 results PI3K alpha
PI3K α, sequence (P42336 whole entry): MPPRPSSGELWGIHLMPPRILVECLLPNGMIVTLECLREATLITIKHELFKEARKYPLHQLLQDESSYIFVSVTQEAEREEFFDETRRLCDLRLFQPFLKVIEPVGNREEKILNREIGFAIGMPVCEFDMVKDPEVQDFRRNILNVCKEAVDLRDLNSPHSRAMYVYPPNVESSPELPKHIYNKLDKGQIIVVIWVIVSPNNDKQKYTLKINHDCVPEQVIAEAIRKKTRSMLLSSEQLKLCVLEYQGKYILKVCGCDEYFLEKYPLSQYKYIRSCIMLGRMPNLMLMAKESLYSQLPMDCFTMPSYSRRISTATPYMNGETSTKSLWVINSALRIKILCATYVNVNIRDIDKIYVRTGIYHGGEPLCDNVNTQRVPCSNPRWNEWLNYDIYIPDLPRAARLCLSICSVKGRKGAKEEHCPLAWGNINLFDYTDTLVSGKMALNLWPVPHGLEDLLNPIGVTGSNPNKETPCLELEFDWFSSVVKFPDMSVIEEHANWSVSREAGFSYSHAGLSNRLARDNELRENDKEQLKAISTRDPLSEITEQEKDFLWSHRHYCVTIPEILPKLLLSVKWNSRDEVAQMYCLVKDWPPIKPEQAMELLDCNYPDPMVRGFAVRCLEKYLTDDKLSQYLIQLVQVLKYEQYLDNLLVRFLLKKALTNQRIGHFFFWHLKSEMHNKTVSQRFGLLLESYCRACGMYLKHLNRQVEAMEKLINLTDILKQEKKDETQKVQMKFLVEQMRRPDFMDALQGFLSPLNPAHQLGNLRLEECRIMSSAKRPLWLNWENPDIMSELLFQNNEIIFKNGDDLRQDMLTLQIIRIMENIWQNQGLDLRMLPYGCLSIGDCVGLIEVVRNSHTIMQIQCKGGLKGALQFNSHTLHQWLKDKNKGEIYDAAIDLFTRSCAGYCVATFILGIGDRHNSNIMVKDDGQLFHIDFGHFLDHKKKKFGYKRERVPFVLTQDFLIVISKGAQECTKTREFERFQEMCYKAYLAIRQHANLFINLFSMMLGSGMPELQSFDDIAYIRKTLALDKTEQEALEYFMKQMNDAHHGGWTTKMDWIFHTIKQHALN
PI3K α, sequence (P27986 whole entry partner): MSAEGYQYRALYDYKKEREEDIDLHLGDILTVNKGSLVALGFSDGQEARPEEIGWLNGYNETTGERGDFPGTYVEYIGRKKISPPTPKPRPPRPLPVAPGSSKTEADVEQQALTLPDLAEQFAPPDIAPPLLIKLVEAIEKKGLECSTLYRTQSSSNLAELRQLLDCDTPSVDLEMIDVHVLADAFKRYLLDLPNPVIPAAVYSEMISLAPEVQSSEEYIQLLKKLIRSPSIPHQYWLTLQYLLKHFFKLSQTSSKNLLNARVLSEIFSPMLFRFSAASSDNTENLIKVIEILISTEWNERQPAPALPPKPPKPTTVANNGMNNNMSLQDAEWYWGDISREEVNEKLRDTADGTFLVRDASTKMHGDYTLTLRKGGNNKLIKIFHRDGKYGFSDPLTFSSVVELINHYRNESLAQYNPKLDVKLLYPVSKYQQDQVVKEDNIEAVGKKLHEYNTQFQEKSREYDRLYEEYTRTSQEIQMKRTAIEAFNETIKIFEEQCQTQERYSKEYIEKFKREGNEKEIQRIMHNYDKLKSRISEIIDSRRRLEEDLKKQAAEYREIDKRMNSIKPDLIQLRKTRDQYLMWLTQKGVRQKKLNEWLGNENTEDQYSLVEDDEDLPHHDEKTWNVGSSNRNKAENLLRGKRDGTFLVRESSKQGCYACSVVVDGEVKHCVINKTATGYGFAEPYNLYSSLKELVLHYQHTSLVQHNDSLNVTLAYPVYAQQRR

[4] = target: PI3K β (Homo sapiens (Human), UniProt P42338); experiment: PI3K β inhibition assay; assay type: biochemical; conditions: Table 2; compound numbers of Table 3; read-out: IC50 results PI3K beta
PI3K β, sequence (P42338 whole entry): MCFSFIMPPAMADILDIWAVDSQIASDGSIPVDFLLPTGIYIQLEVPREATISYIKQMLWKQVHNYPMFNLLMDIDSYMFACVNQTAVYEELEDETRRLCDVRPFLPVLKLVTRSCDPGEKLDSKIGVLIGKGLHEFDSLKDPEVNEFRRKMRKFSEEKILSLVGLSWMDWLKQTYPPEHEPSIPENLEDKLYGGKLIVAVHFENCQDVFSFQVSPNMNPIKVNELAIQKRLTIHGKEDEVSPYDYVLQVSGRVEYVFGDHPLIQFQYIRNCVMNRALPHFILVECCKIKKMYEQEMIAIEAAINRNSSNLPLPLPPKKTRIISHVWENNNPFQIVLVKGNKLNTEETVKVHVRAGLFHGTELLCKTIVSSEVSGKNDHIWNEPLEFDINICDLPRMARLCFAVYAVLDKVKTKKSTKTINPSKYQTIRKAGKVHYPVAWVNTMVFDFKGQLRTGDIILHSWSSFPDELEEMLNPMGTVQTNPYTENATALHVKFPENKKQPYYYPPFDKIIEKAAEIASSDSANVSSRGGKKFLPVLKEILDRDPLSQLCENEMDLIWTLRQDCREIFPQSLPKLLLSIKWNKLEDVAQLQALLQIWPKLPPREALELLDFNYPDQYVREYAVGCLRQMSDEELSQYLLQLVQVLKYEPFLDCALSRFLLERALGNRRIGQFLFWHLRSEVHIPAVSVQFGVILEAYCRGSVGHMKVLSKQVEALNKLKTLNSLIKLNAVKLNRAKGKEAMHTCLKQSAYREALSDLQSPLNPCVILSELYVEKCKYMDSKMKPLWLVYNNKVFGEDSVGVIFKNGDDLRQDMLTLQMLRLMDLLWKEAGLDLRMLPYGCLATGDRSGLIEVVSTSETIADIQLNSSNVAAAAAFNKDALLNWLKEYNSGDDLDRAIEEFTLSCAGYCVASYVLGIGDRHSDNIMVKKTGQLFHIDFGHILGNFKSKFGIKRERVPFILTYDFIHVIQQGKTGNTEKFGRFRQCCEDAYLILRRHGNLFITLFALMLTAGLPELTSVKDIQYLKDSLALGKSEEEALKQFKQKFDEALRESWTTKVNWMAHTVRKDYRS
PI3K β, sequence (P27986 whole entry partner): as the sequence (P27986 whole entry partner) above

[5] = target: PI3K γ (Homo sapiens (Human), UniProt P48736); experiment: PI3K γ inhibition assay; assay type: biochemical; conditions: Table 2; compound numbers of Table 3; read-out: IC50 results PI3K gamma
PI3K γ, sequence (P48736 whole entry): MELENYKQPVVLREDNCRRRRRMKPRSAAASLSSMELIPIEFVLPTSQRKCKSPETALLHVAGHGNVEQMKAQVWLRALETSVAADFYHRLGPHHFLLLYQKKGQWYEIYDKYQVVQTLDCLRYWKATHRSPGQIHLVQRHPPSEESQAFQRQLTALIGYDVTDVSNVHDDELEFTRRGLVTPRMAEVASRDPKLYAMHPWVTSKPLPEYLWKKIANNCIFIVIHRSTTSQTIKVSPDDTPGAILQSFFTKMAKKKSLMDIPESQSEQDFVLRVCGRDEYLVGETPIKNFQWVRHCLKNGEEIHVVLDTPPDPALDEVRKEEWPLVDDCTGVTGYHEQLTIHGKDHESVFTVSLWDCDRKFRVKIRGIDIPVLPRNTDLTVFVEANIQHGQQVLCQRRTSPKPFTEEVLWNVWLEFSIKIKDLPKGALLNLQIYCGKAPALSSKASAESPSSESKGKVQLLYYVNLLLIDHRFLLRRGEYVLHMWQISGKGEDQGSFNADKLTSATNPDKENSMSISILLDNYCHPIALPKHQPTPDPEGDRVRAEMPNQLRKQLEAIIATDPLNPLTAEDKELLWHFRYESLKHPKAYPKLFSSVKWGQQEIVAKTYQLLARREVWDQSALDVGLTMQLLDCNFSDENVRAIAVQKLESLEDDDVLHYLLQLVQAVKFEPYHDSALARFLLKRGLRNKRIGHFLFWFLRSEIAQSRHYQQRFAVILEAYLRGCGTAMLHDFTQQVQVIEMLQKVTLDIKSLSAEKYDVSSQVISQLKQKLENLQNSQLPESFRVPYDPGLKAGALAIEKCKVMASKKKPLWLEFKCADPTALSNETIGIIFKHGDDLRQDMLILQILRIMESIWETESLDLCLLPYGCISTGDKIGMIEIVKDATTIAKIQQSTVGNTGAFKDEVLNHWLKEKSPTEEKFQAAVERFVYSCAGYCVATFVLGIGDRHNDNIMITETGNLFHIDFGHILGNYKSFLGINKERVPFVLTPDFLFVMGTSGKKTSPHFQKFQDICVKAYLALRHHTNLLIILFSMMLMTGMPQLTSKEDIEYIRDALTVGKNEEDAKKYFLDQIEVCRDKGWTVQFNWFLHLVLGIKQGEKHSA

[6] = target: PI3K δ (Homo sapiens (Human), UniProt O00329); experiment: PI3K δ inhibition assay; assay type: biochemical; conditions: Table 2; compound numbers of Table 3; read-out: IC50 results PI3K delta
PI3K δ, sequence (O00329 whole entry): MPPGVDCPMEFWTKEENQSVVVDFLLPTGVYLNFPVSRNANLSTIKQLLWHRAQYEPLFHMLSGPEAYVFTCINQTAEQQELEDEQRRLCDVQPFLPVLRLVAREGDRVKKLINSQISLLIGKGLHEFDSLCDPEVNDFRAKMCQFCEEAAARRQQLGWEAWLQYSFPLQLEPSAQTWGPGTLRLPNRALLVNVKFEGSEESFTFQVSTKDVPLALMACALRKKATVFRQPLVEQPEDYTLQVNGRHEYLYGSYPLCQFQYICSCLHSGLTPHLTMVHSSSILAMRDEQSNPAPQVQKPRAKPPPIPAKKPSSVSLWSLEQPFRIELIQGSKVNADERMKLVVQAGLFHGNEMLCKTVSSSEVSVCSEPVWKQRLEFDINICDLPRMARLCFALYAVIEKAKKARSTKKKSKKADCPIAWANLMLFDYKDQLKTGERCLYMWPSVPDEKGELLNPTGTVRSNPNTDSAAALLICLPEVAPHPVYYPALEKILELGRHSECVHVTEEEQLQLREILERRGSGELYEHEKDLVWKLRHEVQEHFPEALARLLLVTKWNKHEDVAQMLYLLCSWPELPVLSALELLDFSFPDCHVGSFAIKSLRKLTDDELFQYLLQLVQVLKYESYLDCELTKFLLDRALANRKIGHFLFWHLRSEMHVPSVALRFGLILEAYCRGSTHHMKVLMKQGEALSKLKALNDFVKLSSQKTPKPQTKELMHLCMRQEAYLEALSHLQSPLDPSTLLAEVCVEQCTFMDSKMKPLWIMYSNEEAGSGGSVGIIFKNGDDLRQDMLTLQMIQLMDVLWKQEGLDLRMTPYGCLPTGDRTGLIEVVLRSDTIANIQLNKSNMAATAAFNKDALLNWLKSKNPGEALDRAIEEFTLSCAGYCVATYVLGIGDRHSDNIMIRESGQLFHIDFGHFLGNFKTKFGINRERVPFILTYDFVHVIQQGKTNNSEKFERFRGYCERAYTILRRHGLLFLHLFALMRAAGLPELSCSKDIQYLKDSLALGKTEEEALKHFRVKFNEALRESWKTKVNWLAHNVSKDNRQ
PI3K δ, sequence (P27986 whole entry partner): as the sequence (P27986 whole entry partner) above

[7] = tested on: PC3; experiment: Tumor cell line proliferation assay (Alamar Blue); assay type: cell-based; conditions: Homo sapiens, PC-3
[8] = tested on: leukemic cells from p190 transduced cultures; conditions: about 70 mg/kg twice daily; cited from earlier work
[9] = tested on: B6.Sle1z.Sle3z model; conditions: cited from earlier work
[10] = tested on: PI3K/Akt/mTor signaling; experiment: Kinase signaling in blood (phosflow); assay type: cell-based; conditions: anti-CD3 stimulation
Procedure: PI3K/Akt/mTor signaling is measured in blood cells using the phosflow method (Methods Enzymol. 2007; 434:131-54). The advantage of this method is that it is by nature a single cell assay so that cellular heterogeneity can be detected rather than population averages. This allows concurrent dinstinction of signaling states in different populations defined by other markers. Phosflow is also highly quantitative. To test the effects of the inhibitors disclosed herein, unfractionated splenocytes, or peripheral blood mononuclear cells are stimulated with anti-CD3 to initiate T-cell receptor signaling. The cells are then fixed and stained for surface markers and intracellular phosphoproteins.
Similarly, aliquots of whole blood are incubated for 15 minutes with vehicle (e.g. 0.1% DMSO) or kinase inhibitors at various concentrations, before addition of stimuli to crosslink the T cell receptor (TCR) (anti-CD3 with secondary antibody) or the B cell receptor (BCR) using anti-kappa light chain antibody (Fab′2 fragments). After approximately 5 and 15 minutes, samples are fixed (e.g. with cold 4% paraformaldehyde) and used for phosflow. […] The level of phosphrylation of kinase substrates such as Akt and S6 are then measured by incubating the fixed cells with labeled antibodies specific to the phosphorylated isoforms of these proteins. The population of cells are then analyzed by flow cytometery. […]

SMILES: O=C(O)CCCc1ccc(N(CCCl)CCCl)cc1 [chlorambucil]
chemical stability [1]: largely hydrolyzed over the course of 24 hours

SMILES: CNC(=O)Nc1nc2ccc(-c3nn(C4CCN(C(C)=O)CC4)c4ncnc(N)c34)cc2s1 [Compound 23]
IC50 [2]: ≤ 50 nM | IC50 [3]: ≤ 50 nM | IC50 [4]: ≤ 100 nM | IC50 [5]: ≤ 50 nM | IC50 [6]: ≤ 50 nM | IC50 ([7]; Table 2, compound numbers of Table 3, read-out: IC50 results PC3 proliferation): > 1000 nM

SMILES: Cc1ccc(NC(=O)c2ccc(CN3CCN(C)CC3)cc2)cc1Nc1nccc(-c2cccnc2)n1 [imatinib]
leukemogenesis [8]: delay but not cure leukemogenesis

SMILES: CO[C@H]1C[C@@H]2CC[C@@H](C)[C@@](O)(O2)C(=O)C(=O)N2CCCC[C@H]2C(=O)O[C@H]([C@H](C)C[C@@H]2CC[C@@H](OCCO)[C@H](OC)C2)CC(=O)[C@H](C)/C=C(\C)[C@@H](O)[C@@H](OC)C(=O)[C@H](C)C[C@H](C)/C=C/C=C/C=C/1C [RAD001]
lupus symptoms [9]: ameliorate lupus symptoms

IC50 ([7]; Table 1, PC3 cells, read-out: PC3 proliferation): < 500 nM
SMILES: CC(C)n1nc(-c2cc3c(Cl)c(O)ccc3[nH]2)c2c(N)ncnc21 [Compound 22]

Akt phosphorylation [10]: enhances | S6 phosphorylation [10]: inhibits
SMILES: CO[C@H]1C[C@@H]2CC[C@@H](C)[C@@](O)(O2)C(=O)C(=O)N2CCCC[C@H]2C(=O)O[C@H]([C@H](C)C[C@@H]2CC[C@@H](O)[C@H](OC)C2)CC(=O)[C@H](C)/C=C(\C)[C@@H](O)[C@@H](OC)C(=O)[C@H](C)C[C@H](C)/C=C/C=C/C=C/1C [rapamycin]

— US9828378B2, “Kinase inhibitors and methods of use” (Intellikine LLC, priority 2008, dated 2017)
